Read-outs that look alike come from different tables or passages of the source.
Key:
OCI-AML3 tumors = conditions: established OCI-AML3 tumors, NSG mice, 4 weeks; Azacitidine 2 mg/kg ip QD × 7; Compound A1 30 mg/kg po QD × 28
Method: For survival assessment, results were plotted as the percentage survival against days post tumor implant. Negative clinical signs and/or ≥20% body weight loss was used as a surrogate endpoint for death. Median survival was determined utilizing Kaplan-Meier survival analysis. The percent increased life span (ILS) was calculated as: ((median survival day of treated group—median survival day of control group)/median survival day of control group)×100. Animals failing to reach the surrogate endpoint due to adverse clinical signs (such as ulcerated tumors, body weight loss, etc.) or death unrelated to treatment were censored for the survival assessment.

MOLM-13 tumors [1] = conditions: established MOLM-13 tumors, NSG mice, 4 weeks; Azacitidine 2 mg/kg ip QD × 7; Compound A1 10 mg/kg po QD × 28
Method: 11) Efficacy of Menin-MLL Inhibitor in Combination with Azacitidine, in MOLM-13 (KMT2A-r) IV Model in NSG Mice
Each mouse received an injection of 1×10^5 MOLM-13 cells, and all other parameters were conducted as described for experiment (10).

[2] = Metabolic stability in mouse liver microsomes; format: in vitro ADME; conditions: liver microsomes, pH 7.4, 0.5 mg/mL microsomes protein, read-out: Mouse LM Clint
Method: 4) Metabolic Stability in Human/Mouse Liver Microsomes
The objective of this study is to measure in vitro metabolic stability of test compound(s) in human and mouse liver microsomes and provide quantitative information on the rate of metabolic turnover (i.e., determination of the apparent intrinsic clearance of test).
Test items were prepared at a stock concentration of 10 mM in DMSO. For determination of metabolic turnover, a final working solution was prepared by adding 2 μL of 10 mM DMSO stock solution for test compound or positive control compounds to 198 μL of acetonitrile (100 μM final concentration).
Incubations were performed as follows: First, liver microsomes were thawed on ice and a master solution containing liver microsomes in 100 mM PBS (phosphate-buffered saline) at pH 7.4 is prepared. Next, the liver microsomes solution was added to the incubation plates and 10 mM NADPH (Nicotinamide-adenine dinucleotide phosphate) was added (MW: 833.4 g/mol; Roche Diagnostics GmbH1, Germany. Dissolved in phosphate buffer (100 mmol/L, pH 7.4)). The mixture was mixed for 10 seconds and pre-warmed in the incubation plate at 37° C. for 10 minutes. The metabolic reaction was initiated with the addition of 5 μL of the 100 μM working solution for test compound or positive control compounds to incubation plate (final test item concentration=1 μM). The reaction final mixture should contain 1 mM NADPH, 0.5 mg/mL microsomes protein and 1 μM test compound or positive control compound in 100 mM PBS at pH 7.4. The percentage of organic solvent in incubation mixture is 1% with DMSO 0.02%.
The reaction was quenched by transferring 50 μL of the incubated mixture at selected time points into the quenching plate containing 200 μL of cold methanol. […]
All calculations were carried out using Microsoft Excel. The slope value, k, was determined by linear regression of the natural logarithm of the remaining percentage of the parent drug vs. incubation time curve.
The in vitro half-life (in vitro t1/2) was determined from the slope value: […]

[3] = Mouse PK (in vivo T1/2 and oral bioavailability); conditions: male, CD-1, mouse, in vivo, fasted male CD-1 mice, formulating agent: A HP-β-CD, A3 Pyrogen free water
Method: 3) Mouse PK (In Vivo T1/2 and Oral Bioavailability)
In vivo pharmacokinetics (PK) were assessed in fasted male CD-1 mice (age 6-8 weeks) following a single intravenous (IV, 0.5 or 1.0 mg/kg administered at 2.5 ml/kg) or oral (PO, 5 mg/kg administered at 10 ml solution/kg) dose of test article formulated in a 20% (w:vol) HP-β-CD solution or in Pyrogen free water.
Plasma and/or whole blood samples were collected from the dorsal metatarsal vein at desired timepoints via serial capillary microsampling (approx. 0.03 mL) using EDTA as an anticoagulant. Concentrations of compound in the plasma and blood samples were analyzed using a qualified LC-MS/MS method. In silico analysis of main pharmacokinetic parameters was performed using WinNonlin (Phoenix™, version 6.1) or similar software.)

hERG potassium channel = hERG potassium channel (Homo sapiens (Human), UniProt Q12809); assay: Membrane potassium current IKr in hERG transfected CHO cells (Protocol 1, QPatch); format: cell-based; conditions: Protocol 1, CHO cells
Method: Experiments were performed using CHO cells stably expressing the hERG potassium channel. Cells were grown at 37° C. and 5% CO2 in culture flasks in Ham's F12 Medium supplemented with 10% heat-inactivated fetal calf serum, hygromycin B (100 μg/ml) and geneticin (100 μg/ml). For use in the automated patch-clamp system QPatch (Sophion) cells were harvested to obtain cell suspension of single cells. […]
Patch-clamp experiments were performed in the voltage-clamp mode and whole-cell currents were recorded with an automated patch-clamp assay utilizing the QPatch system (Sophion). Current signals were amplified and digitized, stored and analyzed by using the QPatch assay software.
The holding potential was −80 mV. The hERG current (K^+-selective outward current) was determined as the maximal tail current at −40 mV after a 2 second depolarization to +60 mV. […] The effect of each concentration was determined after 5 min as an average current of 3 sequential voltage pulses. […]
Concentration/response relations were calculated by non-linear least-squares fits to the individual data points. The half-maximal inhibiting concentration (IC50) was calculated by the fitting routine.

MOLM-13 tumors [4] = assay: Efficacy of menin-MLL inhibitor in combination with gilteritinib in MOLM-13 (KMT2A-r) IV model; format: in vivo; conditions: established MOLM-13 tumors, NSG mice, 4 weeks; Gilteritinib 10 mg/kg po QD × 28; Compound A1 10 mg/kg po QD × 28
Source text: 12) Efficacy of Menin-MLL Inhibitor in Combination with Gilteritinib, in MOLM-13 (KMT2A-r) IV Model in NSG Mice

Sequence of hERG potassium channel (Q12809 whole entry): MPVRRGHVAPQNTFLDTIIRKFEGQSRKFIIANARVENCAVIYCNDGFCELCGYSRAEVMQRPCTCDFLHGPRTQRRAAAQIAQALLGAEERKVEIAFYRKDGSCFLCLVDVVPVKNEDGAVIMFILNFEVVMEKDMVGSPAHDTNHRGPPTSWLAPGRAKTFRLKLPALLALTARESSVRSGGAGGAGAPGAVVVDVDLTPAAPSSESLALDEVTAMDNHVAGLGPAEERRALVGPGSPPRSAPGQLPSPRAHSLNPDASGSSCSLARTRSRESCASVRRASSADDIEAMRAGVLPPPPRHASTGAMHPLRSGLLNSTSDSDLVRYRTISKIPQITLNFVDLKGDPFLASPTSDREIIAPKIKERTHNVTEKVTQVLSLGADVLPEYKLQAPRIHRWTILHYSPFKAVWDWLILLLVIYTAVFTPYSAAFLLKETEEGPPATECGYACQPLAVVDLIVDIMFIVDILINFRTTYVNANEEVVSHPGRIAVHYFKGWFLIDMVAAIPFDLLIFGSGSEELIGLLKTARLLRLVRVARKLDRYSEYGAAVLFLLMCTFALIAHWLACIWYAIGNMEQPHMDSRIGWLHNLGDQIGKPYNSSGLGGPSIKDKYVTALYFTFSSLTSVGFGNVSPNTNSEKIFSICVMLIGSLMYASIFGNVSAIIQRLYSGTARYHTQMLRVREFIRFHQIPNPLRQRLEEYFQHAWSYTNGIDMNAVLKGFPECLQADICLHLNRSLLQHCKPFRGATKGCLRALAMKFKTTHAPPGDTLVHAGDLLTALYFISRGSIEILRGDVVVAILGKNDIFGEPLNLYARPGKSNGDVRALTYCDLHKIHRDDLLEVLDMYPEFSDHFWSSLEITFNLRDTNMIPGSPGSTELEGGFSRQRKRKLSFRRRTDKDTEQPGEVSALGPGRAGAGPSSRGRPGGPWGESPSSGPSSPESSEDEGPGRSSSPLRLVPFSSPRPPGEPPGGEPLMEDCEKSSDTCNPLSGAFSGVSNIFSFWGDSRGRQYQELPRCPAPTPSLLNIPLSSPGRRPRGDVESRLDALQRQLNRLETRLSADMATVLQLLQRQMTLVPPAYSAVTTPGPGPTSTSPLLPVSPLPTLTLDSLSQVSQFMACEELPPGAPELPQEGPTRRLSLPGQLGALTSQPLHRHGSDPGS

With `Nc1ncn([C@@H]2O[C@H](CO)[C@@H](O)[C@H]2O)c(=O)n1` [Azacitidine] as the compound, how does the “% ILS” value (OCI-AML3 tumors) read?
Its value is “*18%”.

What about the “% ILS” value (MOLM-13 tumors [1]) of the same compound?
Its value is “*35%”.

Which microsomal CLint at 1 μM [2] does the source give for `CCN(C(=O)c1cc(F)ccc1Oc1nncnc1N1CCC2(C1)CN([C@H](CCCN(C)CCOC)C(C)C)C2)C(C)C` [Compound A, (R)-N-ethyl-5-fluoro-N-isopropyl-2-((5-(2-(6-((2-methoxyethyl) (methyl)amino)-2-methylhexan-3-yl)-2,6-diazaspiro[3.4]octan-6-yl)-1,2,4-triazin-6-yl)oxy) benzamide] here?
The microsomal CLint at 1 μM was less than 7.5 µL/min/mg.

And the half-life ([3]; iv, 1 mg/kg, single IV 0.5 or 1.0 mg/kg)?
The half-life was 6.7 h.

What about the bioavailability ([3]; po, 5 mg/kg, single PO 5 mg/kg) of the same compound?
Its bioavailability is 17%.

And the IC50 (hERG potassium channel)?
Its IC50 is greater than 30.2 µM.

With `CCc1nc(C(N)=O)c(Nc2ccc(N3CCC(N4CCN(C)CC4)CC3)c(OC)c2)nc1NC1CCOCC1` [Gilteritinib, gilteritinib] as the compound, how does the “% ILS” value (MOLM-13 tumors [4]) read?
Its value is “*63%”.

From patent US20240261292A1, “COMBINATION THERAPIES” (Janssen Pharmaceutica NV, priority 2021, published 2024)
